The results in this text go back to EP3789378A1, “PIPERIDINES OR PIPERIDONES SUBSTITUTED WITH UREA AND HETEROARYL” (Grünenthal GmbH, priority 2019, dated 2021).

pEC50: −log10 of the molar value.

One experiment deals with T1, h FPR2 (Homo sapiens, UniProt P25090).
T1 construct: expressed in transfected cells
T1 sequence (P25090 1-351): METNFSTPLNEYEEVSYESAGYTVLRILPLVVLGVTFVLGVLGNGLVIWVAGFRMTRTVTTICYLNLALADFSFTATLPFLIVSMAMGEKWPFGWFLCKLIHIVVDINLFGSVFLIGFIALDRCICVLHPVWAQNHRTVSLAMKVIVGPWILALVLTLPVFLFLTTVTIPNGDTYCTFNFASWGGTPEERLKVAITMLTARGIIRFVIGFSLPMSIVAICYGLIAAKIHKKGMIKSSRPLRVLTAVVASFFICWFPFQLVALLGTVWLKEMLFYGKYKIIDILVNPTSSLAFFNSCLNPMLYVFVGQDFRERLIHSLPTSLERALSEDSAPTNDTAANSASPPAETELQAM
Put plainly: Agonistic activity in hFPR2-Aq-CHO cells (FLIPR Calcium 5 fluorescence assay). As to conditions: 11 point half log dilution, final assay concentration from 10µM. It is filed as cell-based. As for the experimental part:
After washing, the cells are plated at 10,000 cells per well in 40 µL complete medium in a 384-well sterile clear bottom black plate and incubated in a 5% CO2 incubator at 37°C for 18 hours. Plating media is removed from each well by decanting and gentle tapping before 30 µL of 0.5X Calcium 5 dye solution (0.5X FLIPR Calcium 5 dye (Molecular devices, R8186)); HBSS; 20mM HEPES; 2.5mM Probenecid; 0.025% Pluronic F-127; pH adjusted to 7.4) is added to each well and the plate is then incubated at 37°C for 30 minutes. For the assay the plate is equilibrated at room temperature for 10 minutes before placing it in the FLIPR. Compounds are dissolved in DMSO and serially diluted over an 11 point half log (3.16 fold) dilution (2 mM to 20 nM). Compounds are then diluted 1:50 in assay buffer (HBSS; 20mM HEPES; 2.5mM Probenecid; 0.05% gelatin; 0.1% BSA; pH adjusted to 7.4) just before performing the assay. Compounds are finally added to the respective wells of the cell plate (final assay concentration 10 µM to 100 pM) using the FLIPR (e.g. FLIPR-Tetra, Molecular Devices) and fluorescence readings are captured for 5 minutes. The increase in fluorescence from the basal reading in the presence of the compounds is compared with that of the control wells (wells having no compound) to calculate the activity of the compounds. The EC50 values of the compounds can be determined using e.g. Graph pad Prism software.
Assay method for measuring agonistic activity of compounds in hFPR2-Aq-CHO cell
Cryo-vial containing 6x10^6 cells (hFPR1-Gα15-CHO or hFPR2-Aq-CHO) was thawed in a 37°C water bath. Cells were suspended in 10ml of respective complete growth media (F12(1X)HAM media (Gibco; Cat#11765); 10% HI-FBS (Gibco; Cat#10082); 0.4 mg/ml Geneticin (Gibco; Cat#10131); 0.25 mg/ml Zeocin (Invitrogen; Cat#R25001)) in a 15ml centrifuge tube. The cell viability was checked with the help of Trypan Blue dye. Upon washing the cells, those were plated in a 384-well sterile clear bottom black plate (Greiner Bioone Cat# 781091) so that, each well contained 10,000 cells in 40µl complete growth media. The plate was incubated in a 5% CO2 incubator at 37°C for 18 hours. Before assay on the next day, the cell plating media was removed from each well of the plate by decanting and gentle tapping. 30µl of 0.5X Calcium 5 dye solution (0.5X FLIPR Calcium 5 dye (Molecular devices Cat# R8186); HBSS (Invitrogen; Cat#14025); 20mM HEPES (Sigma; Cat#H0887); 2.5mM Probenecid (Sigma; Cat#P8761); 0.025% Pluronic F-127 (Sigma; Cat#P2443); pH adjusted to 7.4) was added to each well. The plate was then incubated at 37°C for 30 minutes. Following which the plate was equilibrated at room temperature for 10 minutes before placing it in a 384 well FLIPR for assay. Compounds were dissolved in DMSO and serially diluted following 11 point half log (3.16 fold) dilution with a starting concentration of 2mM (Final assay concentration 10µM). Aliquots of above mentioned each dilution was mixed with assay buffer (HBSS (Invitrogen; Cat#14025); 20mM HEPES (Sigma; Cat#H0887); 2.5mM Probenecid (Sigma; Cat#P8761); 0.05% gelatin (Sigma; Cat#G1890); 0.1% BSA (Sigma; Cat#A3059); pH adjusted to 7.4) just before performing the assay. Compounds were added to the respective wells of the assay ready cell plate with the help of the FLIPR (FLIPR Tetra) and fluorescence readings were captured for 5 minutes to measure any agonistic response of the compounds. The increase in fluorescence readings from the basal reading in presence of the compounds were compared with that of the control wells (wells having no compound) to calculate the agonistic activity of the compounds. The EC50 values of the compounds were determined using the Graph pad Prism software.
For orientation: pEC50 means the EC50 on a negative log10 scale, so that one unit is a factor of ten. On to `COc1ccc([C@@H]2CN(CC(N)=O)CC[C@H]2NC(=O)Nc2ccc(Cl)cc2)nc1` (single isomer, unassigned) [Ex-170, trans-2-[4-[[(4-Chlorophenyl)-carbamoyl]amino]-3-(5-methoxy-pyridin-2-yl)-piperidin-1-yl]-acetamide], for which the pEC50 is 9.52.

For `COc1ccc([C@@H]2CN(C(=O)CN(C)C)CC[C@H]2NC(=O)Nc2ccccc2)nc1` (relative stereo) [Ex-157, trans-1-[1-(2-Dimethylamino-acetyl)-3-(5-methoxy-pyridin-2-yl)-piperidin-4-yl]-3-phenyl-urea], the pEC50 was 7.09.

As to `Cc1cc(NC(=O)N[C@@H]2CCN(Cc3ncccn3)C[C@H]2c2ccc(Cl)s2)sn1` (single isomer, unassigned) [Ex-62, trans-1-[3-(5-chlorothiophen-2-yl)-1-(pyrimidin-2-ylmethyl)piperidin-4-yl]-3-(3-methyl-1,2-thiazol-5-yl)urea], the pEC50 is 9.70.

Consider `COc1ccc([C@@H]2CN(CC(C)(C)O)CC[C@H]2NC(=O)Nc2cc(C)ns2)nc1` (relative stereo) [Ex-121, trans-1-[1-(2-Hydroxy-2-methyl-propyl)-3-(5-methoxy-pyridin-2-yl)-piperidin-4-yl]-3-(3-methyl-isothiazol-5-yl)-urea], for which the pEC50 was 8.92.

On to `COc1ccc([C@@H]2CN(C(=O)CCO)CC[C@H]2NC(=O)Nc2ccc(Cl)cc2)nc1` (relative stereo) [Ex-102, trans-1-(4-chloro-phenyl)-3-[1'-(3-hydroxy-propionyl)-5-methoxy-1',2',3',4',5',6'-hexahydro-[2,3']bipyridinyl-4'-yl]-urea], for which the pEC50 is 7.57.

With `COc1ccc([C@@H]2CN(Cc3ccn(C)n3)CC[C@H]2NC(=O)Nc2ccc(Cl)cc2)nc1` (single isomer, unassigned) [Ex-39, trans-1-(4-chlorophenyl)-3-[3-(5-methoxypyridin-2-yl)-1-[(1-methyl-1H-pyrazol-3-yl)methyl]piperidin-4-yl]urea], the negative-log EC50 (pEC50) is 9.52.

Turning to `COc1ccc([C@@H]2CN(c3ccnc(C)n3)CC[C@H]2NC(=O)Nc2ccc(Cl)cc2)nc1` (relative stereo) [Ex-210, trans-1-(4-chloro-phenyl)-3-[5-methoxy-1'-(2-methyl-pyrimidin-4-yl)-1',2',3',4',5',6'-hexahydro-[2,3']bipyridinyl-4'-yl]-urea], the pEC50 was 8.30.

`COc1ccc([C@@H]2CN(C(=O)c3cnccc3C)CC[C@H]2NC(=O)Nc2ccc(Cl)cc2)nc1` (single isomer, unassigned) [Ex-52, trans-1-(4-chlorophenyl)-3-[3-(5-methoxypyridin-2-yl)-1-[(4-methylpyridin-3-yl)carbonyl]piperidin-4-yl]urea]: the pEC50 is 9.30.

On to `Cc1cc(CN2CC[C@@H](NC(=O)Nc3ccc(Cl)cc3)[C@H](c3ccc(Cl)cn3)C2)no1` (single isomer, unassigned) [Ex-22, trans-1-(4-chlorophenyl)-3-[3-(5-chloropyridin-2-yl)-1-[(5-methyl-1,2-oxazol-3-yl)methyl]piperidin-4-yl]urea], for which the pEC50 was 9.70.

`COc1ccc([C@@H]2CN(Cc3ccn(S(C)(=O)=O)n3)CC[C@H]2NC(=O)Nc2ccc(Cl)cc2)nc1` (single isomer, unassigned) [Ex-43, trans-1-(4-chlorophenyl)-3-[1-[(1-methanesulfonyl-1H-pyrazol-3-yl)methyl]-3-(5-methoxypyridin-2-yl)piperidin-4-yl]urea]: the pEC50 was 10.52.

With `CNCCN1CC[C@@H](NC(=O)Nc2ccc(Cl)cc2)[C@H](c2ccc(OC)cn2)C1` (relative stereo) [Ex-117, trans-1-(4-Chlorophenyl)-3-[3-(5-methoxy-pyridin-2-yl)-1-(2-methylamino-ethyl)-piperidin-4-yl]-urea], the pEC50 is 8.52.

With `COc1ccc([C@@H]2CN(CC(F)F)CC[C@H]2NC(=O)Nc2ccc(Cl)cc2)nc1` (single isomer, unassigned) [Ex-35, trans-1-(4-chlorophenyl)-3-[1-(2,2-difluoroethyl)-3-(5-methoxypyridin-2-yl)piperidin-4-yl]urea], the pEC50 was 10.22.

With `COc1ccc([C@@H]2CN(C(=O)C3CCN(C)CC3)CC[C@H]2NC(=O)Nc2ccc(Cl)cc2)nc1` (single isomer, unassigned) [Ex-187, trans-1-(4-chlorophenyl)-3-[3-(5-methoxypyridin-2-yl)-1-(1-methylpiperidine-4-carbonyl)piperidin-4-yl]urea], the pEC50 is 8.85.

As for `COc1ccc([C@@H]2CN(CC3(OC)CC3)CC[C@H]2NC(=O)Nc2ccc(Cl)cc2)nc1` (relative stereo) [Ex-201, trans-1-(4-chloro-phenyl)-3-[5-methoxy-1'-(1-methoxy-cyclopropylmethyl)-1',2',3',4',5',6'-hexahydro-[2,3']bipyridinyl-4'-yl]-urea], the pEC50 was 9.22.

`O=C(Nc1ccc(Cl)cc1)N[C@@H]1CCN(Cc2cncc(F)c2)C[C@H]1c1ccc(Cl)s1` (relative stereo) [Ex-70, trans-1-(4-chlorophenyl)-3-(3-(5-chlorothiophen-2-yl)-1-((5-fluoropyridin-3-yl)methyl)piperidin-4-yl)urea]: the pEC50 was 8.70.

As to `O=C(Nc1ccccc1)N[C@@H]1CCN(CC(F)F)C[C@H]1c1ccc(Cl)cn1` (relative stereo) [Ex-153, trans-1-[3-(5-Chloro-pyridin-2-yl)-1-(2,2-difluoro-ethyl)-piperidin-4-yl]-3-phenyl-urea], the pEC50 is 7.92.

In the case of `COc1ccc([C@@H]2CN(CCC(N)=O)CC[C@H]2NC(=O)Nc2ccc(Cl)cc2)nc1` (relative stereo) [Ex-142, trans-3-[4-[[(4-Chlorophenyl)-carbamoyl]amino]-3-(5-methoxy-pyridin-2-yl)-piperidin-1-yl]-propionamide], the negative logarithm of the EC50 (pEC50) is 8.96.

Staying with this experiment, now noted: agonistic response at 0.1µM.
On to `COc1ccc([C@@H]2CN(Cc3ccn(S(C)(=O)=O)n3)CC[C@H]2NC(=O)Nc2ccccc2)nc1` (relative stereo) [Ex-59, trans-3-[1-[(1-methanesulfonyl-1H-pyrazol-3-yl)methyl]-3-(5-methoxypyridin-2-yl)piperidin-4-yl]-1-phenylurea], for which the activation at 0.1 µM was 26%.

Take `Cc1cc(NC(=O)N[C@@H]2CCN(c3ccncn3)C[C@H]2c2ccc(Cl)cn2)sn1` (relative stereo) [Ex-17, trans-1-(5-chloro-1'-pyrimidin-4-yl-1',2',3',4',5',6'-hexahydro-[2,3']bipyridinyl-4'-yl)-3-(3-methyl-isothiazol-5-yl)-urea]: the activation at 0.1 µM was determined as 30%.

`Cc1cc(CN2CC[C@@H](NC(=O)Nc3ccc(Cl)cc3)[C@H](c3ccc(Cl)s3)C2)no1` (relative stereo) [Ex-45, trans-1-(4-chlorophenyl)-3-[3-(5-chlorothiophen-2-yl)-1-[(5-methyl-1,2-oxazol-3-yl)methyl]piperidin-4-yl]urea]: the activation at 0.1 µM is 10%.
